{"source": "patent US20210163937A1", "about": "“[…] GENOME-EDITED CELLS” (B.R.A.I.N. Biotechnology Research and Information Network AG, priority 2018, published 2021)", "type_in_all_cases": "cell-based, human", "key": {"[1]": {"tested_on": "HaCaT wildtype keratinocytes", "test": "Blasticidin tolerance, growth determined microscopically", "settings": "4 μg/ml blasticidin, HaCaT-WT cells", "method": "(§1) In order to determine the tolerance against the antibiotic blasticidin, HaCaT wildtype keratinocytes (VVT; Boukamp, et al.1988, The Journal of Cell Biology, 106(3):761-771.) as well as HaCaT-LRRC8A^−/− knock-out (KO) cells were treated with different concentrations of blasticidin and growth was determined microscopically for several days (FIG. 2). […] As previously shown for KBM-7cells^10, the LRRC8D subunit is also required for blasticidin uptake in HaCaT cells (FIG. 2A)."}, "[2]": {"tested_on": "HaCaT-LRRC8A−/− knock-out (KO) cells", "test": "Blasticidin tolerance, growth determined microscopically", "method": "as §1"}, "[3]": {"tested_on": "HaCaT knock-out cells devoid of LRRC8D", "test": "Blasticidin tolerance of LRRC8D knock-out cells", "settings": "LRRC8D gene knock-out", "description": "FIG. 2: (A) Microscopic analysis of cytotoxic effect of blasticidin on HaCaT wildtype keratinocytes (VVT) (upper panel), HaCaT knock-out cells devoid of LRRC8A (LRRC8A^−/− KO) and HaCaT knock-out cells devoid of LRRC8D (LRRC8D^−/− KO). (B) Graphical display of survival rate of HaCaT wildtype vs. LRRC8A knock-out cells in presence of blasticidin.\nas §1"}, "[4]": {"tested_on": "non-pure LRRC8A−/− HaCaT cell clone", "test": "Removal of wildtype cells from a mixed LRRC8A−/− cell pool, PCR of genomic DNA", "settings": "single pulse 4 μg/ml blasticidin for 24 h, then blasticidin-free medium", "description": "Creating single cell clones is one of the most challenging tasks in all fields of genome engineering. […] Therefore it was of interest to analyze whether the LRRC8A-mediated blasticidin resistance could be a very easy method to get rid of non-edited wildtype cells. To mimic this issue, a non-pure LRRC8A^−/− HaCaT cell clone, which contained the desired 300 bp LRRC8A genomic deletion as well as few undesired HaCaT wildtype cells, was chosen and either treated or not treated with a single blasticidin pulse (4 μg/ml blasticidin applied for 24 h) (FIG. 3A). Then cultivation medium was changed and cells were cultivated in absence of blasticidin. Genomic DNA was isolated and PCR was performed to visualize the genomic deletion of LRRC8A in knock-out cells and/or the non-deleted, intact LRRC8A gene of wildtype cells (FIG. 3B). […] Strikingly, treatment with blasticidin prevented this effect: No\nThis also proves that disruption of the LRRC8A-mediated blasticidin resistance can not only be used to create blasticidin-resistant cells but that it is also suited to get rid of unwanted wildtype cells during genome engineering."}, "HaCaT cells [5]": {"tested_on": "HaCaT cells", "test": "Co-editing of LRRC8D and EMX1 with blasticidin enrichment, Sanger sequencing and ICE analysis", "settings": "transfected HaCaT cells treated with blasticidin", "method": "The functionality of the above-described co-editing system was tested by using EMX1 (Empty Spiracles Homeobox 1) as gene-of-interest and LRRC8D as blasticidin resistance-mediating gene. EMX1 is a commonly used reference gene in CRISPR-based research^23. Instead of LRRC8A, another member of the LRRC8 gene family, LRRC8D, was used. First, the coding sequences of two sgRNAs targeting the LRRC8D and EMX1 gene were cloned into an expression plasmid containing the coding sequence for the Cas9 nuclease (FIGS. 4 and 5A). Then HaCaT cells were transfected with the expression plasmids and cells were either treated or not treated with blasticidin (FIG. 5A). After several days of cultivation, genomic DNA was extracted and used in PCR to amplify the genomic-region of the LRRC8D and EMX gene. The PCR products were analyzed by Sanger sequencing and subsequent ICE (Inference of CRISPR Edits)^24 analysis to determine the genetic modifications occurring in the treated and non-treated HaCaT cells (FIG. 5B). Strikingly, when the transfected HaCaT cell pool was not treated with blasticidin, no editing event could be detected; neither in the EMX1 nor in the LRRC8D gene."}, "HaCaT cells [6]": {"tested_on": "HaCaT cells", "test": "Co-editing of LRRC8A and EMX1 with blasticidin enrichment, ICE analysis", "settings": "for EMX1 editing: after blasticidin", "method": "(§2) To further increase the editing rate of the gene of interest, the two single sgRNA cassettes of the gene of interest and the LRRC8A or LRRC8D selection gene (FIG. 6A) can be transcriptionally coupled, for example by coupling the sgRNAs via ribozyme structures (FIG. 6B) or by other processing sites such as tRNAs (FIG. 6C). […] Then HaCaT cells were transfected with the corresponding expression plasmids and cells were treated and analyzed as described in Example 4.\nThe initial editing rates for EMX1 and LRRC8A were determined 48 h post-transfection and were very low (<5%) (FIG. 7A). Treatment with blasticidin led to drastic increase of LRRC8A editing (>95%), which was equally high independent of the sgRNA expression construct showing efficient enrichment of LRRC8A-KO cells using blasticidin (FIG. 7A). When sgRNA expression cassette of EMX1 was independent from that of LRRC8A, EMX1 editing was increased from 3 to 7%. Strikingly, by coupling the two sgRNA cassettes of EMX1 and LRRC8A via ribozymes, EMX1 editing could drastically be increased from 7% to >70% (FIG. 7A). This clearly proves that the above-described strategy to increase low editing events by transcriptional coupling is functioning."}, "HEK293 cells [7]": {"tested_on": "HEK293 cells", "test": "Co-editing of LRRC8A and EMX1 with blasticidin enrichment, ICE analysis", "settings": "HEK293, after blasticidin", "method": "as §2\nTo confirm the suitability of the co-editing strategy of the present invention also for a different cell type, the same experimental setup was applied for HEK293 cells (FIG. 7B). Again, initial editing of the gene of interest EMX1 was also very low in HEK293 cells. By applying the co-editing strategy as presented above for HaCaT cells, it was also possible to increase the editing rates to approx. 60% for EMX1 and approx. 90% for LRRC8A in HEK293 cells (using uncoupled sgRNA expression constructs) (FIG. 7B).\nAgain, by transcriptional coupling it was possible to further increase editing rates for EMX1 from 62% to 74% (FIG. 7B)."}, "HEK293 cells [8]": {"tested_on": "HEK293 cells", "test": "HR-dependent LRRC8A gene disruption, cell growth under blasticidin", "settings": "HEK293, Cas9 + intronic LRRC8A sgRNA, treated 72 h after transfection", "method": "Next, it was tested whether the above-described strategy (Example 6, FIG. 8) can indeed be employed to enrich HR-capable cells (or conversely to get rid of cells which have performed NHEJ). First, a HDR donor template was designed (FIG. 9A), which creates a modified, non-functional LRRC8A sequence after successful insertion via HR. The HDR donor template is composed of left and right HR flaks, which are complementary to intronic and exon-3 LRRC8A sequence, respectively. The exon-3 sequence used in the HDR donor template carries two modifications to create non-functional LRRC8A: (i) Mutation of the translational start site ATG to ATT and (ii) deletion of one nucleotide (Guanin) to create LRRC8A frameshift. To also test whether foreign or recombinant DNA sequences can be inserted into the LRRC8A locus as well, the restriction site for the Kpnl restriction enzyme was included into the HDR donor template. To prevent the repeated cutting of the Cas9 enzyme (which would prevent successful HDR donor template insertion), the spacer sequence of the sgRNA (which is used to induce the DSB at the intronic region of LRRC8A) was modified by mutating the PAM motif and the seed region. […]"}}}
{"smiles": "CN(CC[C@H](N)CC(=O)N[C@H]1C=C[C@H](n2ccc(N)nc2=O)O[C@@H]1C(=O)O)C(=N)N", "note": "[blasticidin]", "values": [{"measurement": "growth of cells in presence of blasticidin", "setting": "[1]", "result": "not able to grow anymore and died"}, {"measurement": "survival of cells under blasticidin treatment", "setting": "[2]", "result": "survived the treatment"}, {"measurement": "blasticidin resistance of LRRC8D knock-out cells", "setting": "[3]", "result": "resistant"}, {"measurement": "PCR products of wildtype and knock-out cells after blasticidin treatment", "setting": "[4]", "result": "only the PCR product of the pure knock-out cell clone was detectable"}, {"measurement": "editing percentage of the LRRC8D gene", "setting": "HaCaT cells [5]", "result": 90, "unit": "%"}, {"measurement": "editing percentage of the co-edited EMX1 gene", "setting": "HaCaT cells [5]", "result": 6, "unit": "%"}, {"measurement": "LRRC8A editing", "setting": "HaCaT cells [6]; after blasticidin treatment, independent of sgRNA expression construct", "result": "> 95", "unit": "%"}, {"measurement": "EMX1 editing", "setting": "HaCaT cells [6]; EMX1 sgRNA cassette independent from LRRC8A", "result": 7, "unit": "%"}, {"measurement": "EMX1 editing", "setting": "HaCaT cells [6]; sgRNA cassettes coupled via ribozymes HDV/HH", "result": "> 70", "unit": "%"}, {"measurement": "editing rate for EMX1", "setting": "HEK293 cells [7]; transcriptional coupling", "result": 74, "unit": "%"}, {"measurement": "editing rate for LRRC8A", "setting": "HEK293 cells [7]; uncoupled sgRNA expression constructs", "result": "approx. 90%"}, {"measurement": "cell growth under blasticidin treatment", "setting": "HEK293 cells [8]; HDR donor template included", "result": "cell growth was observed"}, {"measurement": "cell growth under blasticidin treatment", "setting": "HEK293 cells [8]; HDR template omitted", "result": "no cell growth was observed"}]}
